Here are results for one molecule from patent US10179800B2, “Crystalline forms of S-[4-(3-fluoro-3-methylbutyryloxy)but-2-ynyl] 6-α,9-α-difluoro-17-α-(furan-2-yl)carbonyloxy-11-β-hydroxy-16-α-methyl-3-oxoandrosta-1,4-diene-17-β-carbothioate” (Sun Pharma Advanced Research Company Limited, priority 2015, dated 2019).

This series can be described thus: Stability of the solid form upon storage. To be noted: storage at ambient conditions. In kind it is physicochemical.

On to `C[C@@H]1CC2C3C[C@H](F)C4=CC(=O)C=C[C@]4(C)[C@@]3(F)[C@@H](O)C[C@]2(C)[C@@]1(OC(=O)c1ccco1)C(=O)SCC#CCOC(=O)CC(C)(C)F` (stereo partly drawn) [amorphous form, S-[4-(3-fluoro-3-methylbutyryloxy)but-2-ynyl]6α,9α-difluoro-17α-(furan-2-yl)carbonyloxy-11β-hydroxy-16α-methyl-3-oxoandrosta-1,4-diene-17β-carbothioate], for which the stability upon storage result is reported as “unstable upon storage even at ambient conditions”.
